Data published in patent US10975037B2 (priority 2018, dated 2021).
Structures can show the parent of a compound that is named as a salt. Where two headings read alike, the source gives them in different places.

Legend:
full-length human RORγt = full-length human RORγt (Homo sapiens (Human), UniProt P51449); assay: RORγt (full-length human) reporter assay, conditions A or B, HEK293T cells; type: cell-based; settings: for inhibition at 6 µM / inhibition at […] / inhibition at 2 µM / inhibition at 0.67 µM / inhibition at 1 µM / inhibition at 3 µM: HEK-293T; for inhibition at 6 µM: read-out: RORγt (FL) Reporter Assay A or B, % inhibition @ 6 μM, 6 μM compound concentration; for inhibition at […] / inhibition at 2 µM / inhibition at 0.67 µM / inhibition at 1 µM / inhibition at 3 µM: read-out: RORγt (FL) Reporter Assay A or B, % inhibition; for inhibition at 2 µM: 2 μM compound concentration; for inhibition at 0.67 µM: 0.67 μM compound concentration (footnote ****); for inhibition at 1 µM: 1 μM compound concentration (footnote ***); for inhibition at 3 µM: 3 μM compound concentration (footnote *)
Chain of full-length human RORγt (P51449 other isoform, or with tags, fused parts or gaps): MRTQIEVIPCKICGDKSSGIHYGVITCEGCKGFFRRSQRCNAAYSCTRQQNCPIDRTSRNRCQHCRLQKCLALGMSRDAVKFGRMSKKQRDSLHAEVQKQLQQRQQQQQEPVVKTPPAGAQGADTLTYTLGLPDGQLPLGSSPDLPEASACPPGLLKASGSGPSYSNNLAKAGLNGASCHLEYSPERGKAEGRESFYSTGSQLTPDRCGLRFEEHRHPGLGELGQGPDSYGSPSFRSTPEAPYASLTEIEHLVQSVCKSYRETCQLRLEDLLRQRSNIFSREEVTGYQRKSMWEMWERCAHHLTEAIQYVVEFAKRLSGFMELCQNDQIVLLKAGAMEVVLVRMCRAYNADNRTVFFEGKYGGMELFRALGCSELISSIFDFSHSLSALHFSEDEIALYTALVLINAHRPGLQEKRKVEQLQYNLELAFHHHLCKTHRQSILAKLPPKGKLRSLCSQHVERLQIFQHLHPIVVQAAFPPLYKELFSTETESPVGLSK
Procedure, shortened: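 After 16–20 h, dual firefly/Renilla luciferase luminescence was read. Firefly signal was normalized to DMSO and saturating reference compound, then to Renilla, and fitted for IC50; % inhibition is versus DMSO.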

[1] = biological target: human RORγt ligand binding domain (RORγt LBD) (Homo sapiens (Human), UniProt P51449); assay: RORγt ThermoFluor® assay (thermal shift binding)
Chain of human RORγt ligand binding domain (RORγt LBD) (P51449 other isoform, or with tags, fused parts or gaps): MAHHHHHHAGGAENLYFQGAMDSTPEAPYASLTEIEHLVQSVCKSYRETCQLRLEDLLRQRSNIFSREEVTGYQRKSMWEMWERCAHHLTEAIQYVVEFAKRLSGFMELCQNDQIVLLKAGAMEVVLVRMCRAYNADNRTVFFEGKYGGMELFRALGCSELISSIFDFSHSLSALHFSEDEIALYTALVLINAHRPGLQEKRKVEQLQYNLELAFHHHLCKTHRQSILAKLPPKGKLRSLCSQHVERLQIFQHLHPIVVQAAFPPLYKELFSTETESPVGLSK
Procedure, shortened: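 Thermal shift with 0.065 mg/mL RORγt LBD and 60 μM 1,8-ANS in 100 mM Hepes pH 7.0, 10 mM NaCl, 2.5 mM GSH, 0.002% Tween-20.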

[2] = RORγt (FL) Reporter Assay A or B, IC50, HEK293T cells
[3] = read-out: ThermoFluor® Assay, Kd
[4] = 0.22 μM compound concentration (footnote *******)

Row | SMILES | inhibition at 6 µM (full-length human RORγt) | IC50 (full-length human RORγt; [2]) | Kd [1, 3] | Kd ([1]; ThermoFluor® Assay, Kd) | other results
1 | COCCn1nc(C(=O)NC[C@]2(O)CC[C@@H](S(C)(=O)=O)CC2)c(Cl)c1-c1ccc(CC(C)(C)C(F)(F)F)cc1OC [Example 186, 4-Chloro-N-(((1s,4s)-1-hydroxy-4-(methylsulfonyl)cyclohexyl)methyl)-5-(2-methoxy-4-(3,3,3-trifluoro-2,2-dimethylpropyl)phenyl)-1-(2-methoxyethyl)-1H-pyrazole-3-carboxamide] | 96% | 34 nM | 7.7 nM | – | –
2 | CCn1nc(C(=O)NC[C@H]2CC[C@H](S(C)(=O)=O)CC2)c(Cl)c1-c1ccc(CC(C)(C)C(F)(F)F)cc1F [Example 177, 4-Chloro-1-ethyl-5-(2-fluoro-4-(3,3,3-trifluoro-2,2-dimethylpropyl)phenyl)-N-(((1r,4r)-4-(methylsulfonyl)cyclohexyl)methyl)-1H-pyrazole-3-carboxamide] | – | 7.2 nM | 2.2 nM | – | inhibition at […] (full-length human RORγt; [4]): 77%
3 | CCn1nc(C(=O)NC[C@H]2CC[C@H](S(C)(=O)=O)CC2)c(Cl)c1-c1ccc(N[C@H](C)C(F)(F)F)cc1OC(C)C [Example 207, 4-Chloro-1-ethyl-5-(2-isopropoxy-4-(((R)-1,1-trifluoropropan-2-yl)amino)phenyl)-N-(((1r,4R)-4-(methylsulfonyl)cyclohexyl)methyl)-1H-pyrazole-3-carboxamide] | 101% | 40 nM | 10 nM | – | –
4 | CCn1nc(C(=O)NC[C@]2(O)CC[C@@H](S(C)(=O)=O)CC2)c(Cl)c1-c1c(F)cc(C[C@H](C)C(F)(F)F)cc1F (single isomer, unassigned) [Example 198, 4-Chloro-5-(2,6-difluoro-4-((S*)-3,3,3-trifluoro-2-methylpropyl)phenyl)-1-ethyl-N-(((1s,4R)-1-hydroxy-4-(methylsulfonyl)cyclohexyl)methyl)-1H-pyrazole-3-carboxamide] | – | 79 nM | – | 16 nM | inhibition at 2 µM (full-length human RORγt): 69%
5 | CCCn1nc(C(=O)NC[C@H]2CC[C@H](S(C)(=O)=O)CC2)c(Cl)c1-c1ccc(C[C@H](C)C(F)(F)F)cc1OC (single isomer, unassigned) [Example 41, 4-Chloro-5-(2-methoxy-4-((S*)-3,3,3-trifluoro-2-methylpropyl)phenyl)-N-(((1r,4S)-4-(methylsulfonyl)cyclohexyl)methyl)-1-propyl-1H-pyrazole-3-carboxamide] | – | 8 nM | – | 0.28 nM | inhibition at 0.67 µM (full-length human RORγt): 98%
6 | CCn1nc(C(=O)NC[C@]2(O)CC[C@@H](S(C)(=O)=O)CC2)c(Cl)c1-c1ccc(C2(O)CCC(C(F)(F)F)CC2)cc1OC(F)F (single isomer, unassigned) [Example 112, 4-Chloro-5-(2-(difluoromethoxy)-4-((1s*,4s*)-1-hydroxy-4-(trifluoromethyl)cyclohexyl)phenyl)-1-ethyl-N-(((1s,4s)-1-hydroxy-4-(methylsulfonyl)cyclohexyl)methyl)-1H-pyrazole-3-carboxamide] | – | > 1000 nM | – | 3000 nM | inhibition at 1 µM (full-length human RORγt): 44%
7 | CCn1nc(C(=O)NC[C@@]2(O)CC[C@H](S(C)(=O)=O)C[C@@H]2O)c(Cl)c1-c1ccc(C[C@@H](C)C(F)(F)F)cc1OC(F)F (stereo in doubt) [Example 138, 4-Chloro-5-(2-(difluoromethoxy)-4-((R*)-3,3,3-trifluoro-2-methylpropyl)phenyl)-N-(((1S*,2S*,4S*)-1,2-dihydroxy-4-(methylsulfonyl)cyclohexyl)methyl)-1-ethyl-1H-pyrazole-3-carboxamide] | – | 12 nM | – | 3.7 nM | inhibition at 1 µM (full-length human RORγt): 101%
8 | CCn1nc(C(=O)NC[C@]2(C(=O)O)CC[C@@H](S(C)(=O)=O)CC2)c(Cl)c1-c1ccc(N[C@H](C)C(F)(F)F)cc1OC (relative stereo) [Example 97, (1s*,4S*)-1-((4-Chloro-1-ethyl-5-(2-methoxy-4-(((R)-1,1,1-trifluoropropan-2-yl)amino)phenyl)-1H-pyrazole-3-carboxamido)methyl)-4-(methylsulfonyl)cyclohexane-1-carboxylic Acid] | 94% | 730 nM | – | 180 nM | –
9 | CCn1nc(C(=O)NC[C@]2(C#N)CC[C@@H](S(C)(=O)=O)CC2)c(Cl)c1-c1ccc(CC(C)(C)C(F)(F)F)cc1OC(F)F [Example 134, 4-Chloro-N-(((1s*,4s*)-1-cyano-4-(methylsulfonyl)cyclohexyl)methyl)-5-(2-(difluoromethoxy)-4-(3,3,3-trifluoro-2,2-dimethylpropyl)phenyl)-1-ethyl-1H-pyrazole-3-carboxamide] | – | 1.3 nM | 0.2 nM | – | inhibition at […] (full-length human RORγt; [4]): 102%
10 | CCn1nc(C(=O)NC[C@]2(C(N)=O)CC[C@H](S(C)(=O)=O)CC2)c(Cl)c1-c1ccc(N[C@H](C)C(F)(F)F)cc1OC [Example 34, N-(((1r,4R)-1-carbamoyl-4-(methylsulfonyl)cyclohexyl)methyl)-4-chloro-1-ethyl-5-(2-methoxy-4-(((R)-1,1,1-trifluoropropan-2-yl)amino)phenyl)-1H-pyrazole-3-carboxamide] | 6% | > 6000 nM | 3000 nM | – | –
11 | CCn1nc(C(=O)NC[C@H]2CC[C@H](S(C)(=O)=O)CC2)c(Cl)c1-c1ccc(NCC(F)(F)F)cc1OC [Example 25, 4-Chloro-1-ethyl-5-(2-methoxy-4-((2,2,2-trifluoroethyl)amino)phenyl)-N-(((1r,4r)-4-(methylsulfonyl)cyclohexyl)methyl)-1H-pyrazole-3-carboxamide] | 105% | 120 nM | 31 nM | – | –
12 | CCn1nc(C(=O)NC[C@H]2CC[C@H](S(C)(=O)=O)CN2)c(Cl)c1-c1ccc(CC(C)(C)C(F)(F)F)cc1OC(F)F (stereo in doubt) [Example 8, 4-Chloro-5-(2-(difluoromethoxy)-4-(3,3,3-trifluoro-2,2-dimethylpropyl)phenyl)-1-ethyl-N-(((2RS,5SR)-5-(methylsulfonyl)piperidin-2-yl)methyl)-1H-pyrazole-3-carboxamide Hydrobromide] | – | 13 nM | – | 0.73 nM | inhibition at 3 µM (full-length human RORγt): 92%
13 | CCCn1nc(C(=O)NC[C@H]2CC[C@H](S(C)(=O)=O)CC2)c(Cl)c1-c1ccc(C[C@@H](C)C(F)(F)F)cc1OC (single isomer, unassigned) [Example 43, 4-Chloro-5-(2-methoxy-4-((R*)-3,3,3-trifluoro-2-methylpropyl)phenyl)-N-(((1r,4R)-4-(methylsulfonyl)cyclohexyl)methyl)-1-propyl-1H-pyrazole-3-carboxamide] | – | 7 nM | – | 0.21 nM | inhibition at 0.67 µM (full-length human RORγt): 99%
14 | CCn1nc(C(=O)NC[C@]2(O)CC[C@@H](S(C)(=O)=O)CC2)c(C#N)c1-c1ccc(CC(C)C(F)(F)F)cc1OC (some centres unmarked) [Example 122, 4-Cyano-1-ethyl-N-(((1s,4s)-1-hydroxy-4-(methylsulfonyl)cyclohexyl)methyl)-5-(2-methoxy-4-(3,3,3-trifluoro-2-methylpropyl)phenyl)-1H-pyrazole-3-carboxamide] | 104% | 150 nM | 27 nM | – | –
15 | CCc1cc(N[C@H](C)C(F)(F)F)ccc1-c1c(Cl)c(C(=O)NC[C@H]2CC[C@H](S(C)(=O)=O)CC2)nn1CC [Example 206, 4-Chloro-1-ethyl-5-(2-ethyl-4-(((R)-1,1,1-trifluoropropan-2-yl)amino)phenyl)-N-(((1r,4R)-4-(methylsulfonyl)cyclohexyl)methyl)-1H-pyrazole-3-carboxamide] | – | 31 nM | 7 nM | – | inhibition at 2 µM (full-length human RORγt): 100%
16 | CCn1nc(C(=O)NC[C@]2(O)CC[C@@H](S(C)(=O)=O)CC2)c(Cl)c1-c1ccc(CC(C)(C)CC(F)(F)F)cc1OC(F)F [Example 90, 4-Chloro-5-(2-(difluoromethoxy)-4-(4,4,4-trifluoro-2,2-dimethylbutyl)phenyl)-1-ethyl-N-(((1s,4s)-1-hydroxy-4-(methylsulfonyl)cyclohexyl)methyl)-1H-pyrazole-3-carboxamide] | – | 9.6 nM | 0.51 nM | – | inhibition at […] (full-length human RORγt; 0.33 μM compound concentration (footnote *****)): 91%
17 | CCn1nc(C(=O)NC[C@H]2CC[C@H](S(=O)(=O)NC)CC2)c(Cl)c1-c1ccc(CC(C)(C)C(F)(F)F)cc1OC(F)F [Example 50, 4-Chloro-5-(2-(difluoromethoxy)-4-(3,3,3-trifluoro-2,2-dimethylpropyl)phenyl)-1-ethyl-N-(((1r,4r)-4-(N-methylsulfamoyl)cyclohexyl)methyl)-1H-pyrazole-3-carboxamide] | – | – | 0.1 nM | – | IC50 (full-length human RORγt; HEK293T cells, read-out: RORγt (FL) Reporter Assay A or B, IC50): 3 nM
18 | Cn1nc(C(=O)NC[C@]2(O)CC[C@@H](S(C)(=O)=O)CC2)c(Cl)c1-c1ccc(CCCC(F)(F)F)cc1OC(F)F [Example 158, 4-Chloro-5-(2-(difluoromethoxy)-4-(4,4,4-trifluorobutyl)phenyl)-N-(((1s,4s)-1-hydroxy-4-(methylsulfonyl)cyclohexyl)methyl)-1-methyl-1H-pyrazole-3-carboxamide] | – | 3.4 nM | 16 nM | – | inhibition at 3 µM (full-length human RORγt): 111%
